Measured values taken from patent US20250215012A1, “IKZF2 DEGRADERS AND USES THEREOF” (REGENTS OF THE UNIVERSITY OF MICHIGAN, priority 2022, published 2025).
pIC50: −log10 of the molar value. Read-outs that look alike come from different tables or passages of the source.

Key:
[1] = biological target: IKZF1 (Homo sapiens (Human), UniProt Q13422+Q96SW2); assay: IKZF1 HiBit Assay (HEK293T Flp-in-HiBiT-IKZF1 stable cell line); type: cell-based; conditions: for DC50: read-out: IKZF1 HiBit degradation DC50; for Dmax: HEK-293T, read-out: IKZF1 HiBit degradation Dmax
Chain of IKZF1 (Q13422 whole entry): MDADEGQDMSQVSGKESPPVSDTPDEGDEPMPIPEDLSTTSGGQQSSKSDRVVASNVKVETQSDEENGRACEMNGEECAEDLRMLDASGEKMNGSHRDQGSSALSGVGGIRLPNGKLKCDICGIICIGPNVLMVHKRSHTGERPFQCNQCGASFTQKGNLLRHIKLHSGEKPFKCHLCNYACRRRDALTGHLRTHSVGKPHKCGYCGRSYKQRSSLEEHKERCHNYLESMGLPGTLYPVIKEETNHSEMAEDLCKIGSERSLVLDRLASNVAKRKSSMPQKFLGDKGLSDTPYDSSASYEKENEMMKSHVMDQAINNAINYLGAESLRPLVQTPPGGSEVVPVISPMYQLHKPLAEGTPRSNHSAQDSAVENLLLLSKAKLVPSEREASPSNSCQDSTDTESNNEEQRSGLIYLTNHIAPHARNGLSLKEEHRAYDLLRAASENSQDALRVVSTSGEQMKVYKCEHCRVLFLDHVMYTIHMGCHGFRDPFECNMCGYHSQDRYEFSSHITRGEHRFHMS
Chain of IKZF1 (Q96SW2 whole entry): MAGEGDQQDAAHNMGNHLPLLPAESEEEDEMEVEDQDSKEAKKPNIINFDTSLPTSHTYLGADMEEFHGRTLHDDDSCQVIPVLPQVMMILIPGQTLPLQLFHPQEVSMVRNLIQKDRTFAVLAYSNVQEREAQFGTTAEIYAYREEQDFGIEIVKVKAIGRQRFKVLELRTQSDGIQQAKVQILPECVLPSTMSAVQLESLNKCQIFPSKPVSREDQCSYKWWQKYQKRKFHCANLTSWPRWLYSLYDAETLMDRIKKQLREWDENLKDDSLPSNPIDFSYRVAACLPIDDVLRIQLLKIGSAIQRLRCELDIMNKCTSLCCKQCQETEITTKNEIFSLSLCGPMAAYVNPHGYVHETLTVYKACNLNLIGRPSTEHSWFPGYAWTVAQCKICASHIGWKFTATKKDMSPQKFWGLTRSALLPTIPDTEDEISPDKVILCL
Chain of IKZF1 (Q16531 whole entry partner): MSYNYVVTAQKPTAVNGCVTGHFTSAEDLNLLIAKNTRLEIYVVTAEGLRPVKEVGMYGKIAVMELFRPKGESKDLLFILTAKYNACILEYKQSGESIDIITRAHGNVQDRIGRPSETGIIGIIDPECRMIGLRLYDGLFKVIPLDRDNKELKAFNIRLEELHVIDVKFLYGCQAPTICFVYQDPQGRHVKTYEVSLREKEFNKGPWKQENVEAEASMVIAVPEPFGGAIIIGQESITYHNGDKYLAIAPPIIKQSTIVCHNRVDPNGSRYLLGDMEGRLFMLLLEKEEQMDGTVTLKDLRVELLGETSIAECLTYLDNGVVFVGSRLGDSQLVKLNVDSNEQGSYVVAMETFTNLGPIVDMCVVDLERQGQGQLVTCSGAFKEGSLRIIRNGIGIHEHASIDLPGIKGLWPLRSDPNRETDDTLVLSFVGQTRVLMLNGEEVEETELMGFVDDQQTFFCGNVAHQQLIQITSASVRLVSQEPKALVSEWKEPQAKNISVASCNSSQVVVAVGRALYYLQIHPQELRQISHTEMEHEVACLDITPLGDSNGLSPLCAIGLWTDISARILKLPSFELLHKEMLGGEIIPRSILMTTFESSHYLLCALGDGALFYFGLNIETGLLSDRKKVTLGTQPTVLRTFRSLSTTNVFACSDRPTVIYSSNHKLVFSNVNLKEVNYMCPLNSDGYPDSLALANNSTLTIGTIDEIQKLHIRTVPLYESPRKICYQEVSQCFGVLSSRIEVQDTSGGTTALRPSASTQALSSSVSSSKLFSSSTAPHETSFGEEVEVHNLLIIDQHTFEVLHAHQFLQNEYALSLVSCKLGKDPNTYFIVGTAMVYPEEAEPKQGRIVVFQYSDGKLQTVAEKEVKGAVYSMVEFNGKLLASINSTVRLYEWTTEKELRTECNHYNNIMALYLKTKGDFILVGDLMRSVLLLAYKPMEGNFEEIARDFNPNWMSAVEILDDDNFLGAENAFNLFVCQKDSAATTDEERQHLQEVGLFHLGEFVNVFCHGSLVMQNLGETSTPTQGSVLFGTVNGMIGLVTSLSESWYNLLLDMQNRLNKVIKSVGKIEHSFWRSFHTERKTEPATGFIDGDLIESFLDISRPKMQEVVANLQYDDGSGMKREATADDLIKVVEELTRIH
Procedure: The HiBiT protein tagging system was applied to modified Cells: modified HEK293T Flp-in-HiBiT-IKZF1 stable cell line (polyclone) via a CRISPR/Cas9—mediated insertion of the HiBiT peptide tag (Promega™) to the N-terminus of the IKZF2 gene locus (Neon™ transfection system).
Test compound from 10 mM and reference compound (CC-92480 from 50 mM and I-57 from 10 mM) are diluted at 3 folds for 11 doses. 25 nL of diluted compound is transferred to assay plates (Corning3571) using ECHO550, the final DMSO concentration @0.1%. The cells are seeded in 3000/[…]/well to compound plates. The plates are incubated for 6 hrs in TC incubator. The amount of Nano-Glo® HiBiT lytic reagent needed to perform the desired experiments is calculated. The Nano-Glo® HiBiT lytic reagent is brought to room temperature. The LgBiT protein is diluted to 1:100 and the Nano-Glo® HiBiT lytic substrate is brought to 1:50 into an appropriate volume of room temperature Nano-Glo® HiBiT lytic buffer. […] of the detection reagent (or without LgBiT) is dispensed to corresponding well according to the layout. The plate is shaked for 10 mins at room temperature. After briefly centrifuging, the plate is read on Envision. At the indicated timepoints, the Nano-Glo® HiBiT lytic detection system (Promega™) was utilized for detecting bioluminescence of the HiBiT tag in treated cells: abundance of the tag is proportionate to the level of luminescence. Following normalization to DMSO, dose-response curves were plotted (GraphPad Prism) to determine the concentration points at which 50% of HiBiT-Ikaros degradation was achieved by each compound. The extent of degradation (range of luminescence) from the highest to lowest concentration points was calculated to determine the Dm.

[2] = biological target: IKZF2 (Homo sapiens (Human), UniProt Q96SW2+Q9UKS7); assay: IKZF2 HiBit Assay (HEK293T Flp-in-HiBiT cells); type: cell-based; conditions: for DC50: read-out: IKZF2 HiBit degradation DC50; for Dmax: HEK-293T, read-out: IKZF2 HiBit degradation Dmax
Chain of IKZF2 (Q9UKS7 whole entry): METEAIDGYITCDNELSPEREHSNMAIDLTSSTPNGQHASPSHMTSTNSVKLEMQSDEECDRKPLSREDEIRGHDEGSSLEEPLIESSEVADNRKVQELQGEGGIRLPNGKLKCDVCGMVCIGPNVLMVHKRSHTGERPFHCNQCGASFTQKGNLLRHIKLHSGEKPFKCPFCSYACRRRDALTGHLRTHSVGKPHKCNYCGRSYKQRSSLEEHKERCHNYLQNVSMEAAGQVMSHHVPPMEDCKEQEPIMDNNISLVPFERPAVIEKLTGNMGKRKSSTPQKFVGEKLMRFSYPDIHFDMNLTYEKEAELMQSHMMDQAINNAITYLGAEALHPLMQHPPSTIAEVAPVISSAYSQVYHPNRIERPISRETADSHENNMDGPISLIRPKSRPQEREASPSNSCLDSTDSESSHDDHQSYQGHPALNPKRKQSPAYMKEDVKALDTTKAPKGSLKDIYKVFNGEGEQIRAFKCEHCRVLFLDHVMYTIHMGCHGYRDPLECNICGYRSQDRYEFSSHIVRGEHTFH
Chain of IKZF2 (Q96SW2 whole entry): as the sequence (Q96SW2 whole entry) above
Chain of IKZF2 (Q16531 whole entry partner): as the sequence (Q16531 whole entry partner) above
Procedure: The HiBiT protein tagging system was applied to modified HEK293T Flp-in-HiBiT cells (polyclone) via a CRISPR/Cas9—mediated insertion of the HiBiT peptide tag (Promega™) to the N-terminus of the IKZF2 gene locus (Neon™ transfection system). Test and reference compounds are diluted from 1 mM at 3 folds for 11 doses. 25 nL of diluted compound is transferred to assay plates (Corning3570) using ECHO550, the final DMSO concentration @0.1%. The cells are seeded in 3000/[…]/well to compound plates. It is then incubated for 6 hrs in TC incubator. The amount of Nano-Glo® HiBiT lytic reagent needed to perform the desired experiments is calculated. The Nano-Glo® HiBiT lytic reagent is brought to room temperature. The LgBiT protein is diluted to 1:100 and the Nano-Glo® HiBiT lytic substrate is diluted to 1:50 into an appropriate volume of room temperature Nano-Glo® HiBiT lytic buffer. […] of the detection reagent (or without LgBiT) is dispensed to corresponding well according to the layout. The plate is then shaked for 10 mins at room temperature. After briefly centrifuge, the plate is read on Envision. At the indicated timepoints, the Nano-Glo® HiBiT lytic detection system (Promega™) was utilized for detecting bioluminescence of the HiBiT tag in treated cells: abundance of the tag is proportionate to the level of luminescence. Following normalization to DMSO, dose-response curves were plotted (GraphPad Prism) to determine the concentration points at which 50% of HiBiT-Helios degradation was achieved by each compound. The extent of degradation (range of luminescence) from the highest to lowest concentration points was calculated to determine the Dmax.

[3] = biological target: His tagged CRBN+DDB−DLS7+CXU4 (Homo sapiens (Human), UniProt Q96SW2); assay: IC50 Measurements for Binding to CRBN/DDBI (HTRF); conditions: Cy5-labeled Thalidomide probe, one hour incubation
Chain of His tagged CRBN+DDB−DLS7+CXU4 (Q96SW2 whole entry): as the sequence (Q96SW2 whole entry) above
Chain of His tagged CRBN+DDB−DLS7+CXU4 (Q16531 whole entry partner): as the sequence (Q16531 whole entry partner) above

[4] = HEK293T Flp-in-HiBiT-IKZF1 cells, 6 hrs
[5] = HEK293T Flp-in-HiBiT cells, 6 hrs

Row | Structure (SMILES) | DC50 [1, 4] [µM] | Dmax [1, 4] [%] | DC50 [2, 5] [µM] | Dmax [2, 5] [%] | pIC50 [3] | Dmax [1] [%] | Dmax [2] [%]
1 | O=C1CC[C@H](N2Cc3c(ccc4c3OCC43CCN(Cc4cn(-c5ccc(Cl)cc5)nc4Cl)CC3)C2=O)C(=O)N1 [Compound B4, (S)-3-(1′-((3-chloro-1-(4-chlorophenyl)-1H-pyrazol-4-yl)methyl)-6-oxo-6,8-dihydro-2H,7H-spiro[furo[2,3-e]isoindole-3,4′-piperidin]-7-yl)piperidine-2,6-dione] | > 1 | < 20 | 0.001 to 0.01 | 60 to 80 | 6.00 to 6.30 |  | 
2 | O=C1CC[C@H](N2Cc3c(ccc4c3OCC43CCN(Cc4cn(-c5ccc(Cl)cc5)nc4C(F)(F)F)CC3)C2=O)C(=O)N1 [Compound B5, (S)-3-(1′-((1-(4-chlorophenyl)-3-(trifluoromethyl)-1H-pyrazol-4-yl)methyl)-6-oxo-6,8-dihydro-2H,7H-spiro[furo[2,3-e]isoindole-3,4′-piperidin]-7-yl)piperidine-2,6-dione] | > 1 | < 20 | 0.001 to 0.01 | 60 to 80 | 6.30 to 7.00 |  | 
3 | [2H]C([2H])(c1ccc2cn(C)nc2c1)N1CCC2(CC1)COc1c2ccc2c1CN([C@H]1CCC(=O)NC1=O)C2=O [Compound B7, (S)-3-(1′-((2-methyl-2H-indazol-6-yl)methyl-d2)-6-oxo-6,8-dihydro-2H,7H-spiro[furo[2,3-e]isoindole-3,4′-piperidin]-7-yl)piperidine-2,6-dione] | > 1 | < 20 | 0.001 to 0.01 | 60 to 80 | 6.30 to 7.00 |  | 
4 | [2H]C([2H])(c1ccc2cnn(C)c2c1)N1CCC2(CC1)COc1c2ccc2c1CN([C@H]1CCC(=O)NC1=O)C2=O [Compound B8, (S)-3-(1′-((1-methyl-1H-indazol-6-yl)methyl-d2)-6-oxo-6,8-dihydro-2H,7H-spiro[furo[2,3-e]isoindole-3,4′-piperidin]-7-yl)piperidine-2,6-dione] | > 1 |  | 0.001 to 0.01 |  | 6.30 to 7.00 | < 20 | 60 to 80
5 | [2H]C([2H])(c1cccc(-c2cnn(C([2H])([2H])[2H])c2)c1)N1CCC2(CC1)COc1c2ccc2c1CN([C@H]1CCC(=O)NC1=O)C2=O [Compound B9, (S)-3-(1′-((3-(1-(methyl-d3)-1H-pyrazol-4-yl)phenyl)methyl-d2)-6-oxo-6,8-dihydro-2H,7H-spiro[furo[2,3-e]isoindole-3,4′-piperidin]-7-yl)piperidine-2,6-dione] | > 1 | < 20 | 0.001 to 0.01 | 60 to 80 | > 7.00 |  | 
6 | [2H]C([2H])(c1cccc(-c2cnn(C(F)F)c2)c1)N1CCC2(CC1)COc1c2ccc2c1CN([C@H]1CCC(=O)NC1=O)C2=O [Compound B10, (S)-3-(1′-((3-(1-(difluoromethyl)-1H-pyrazol-4-yl)phenyl)methyl-d2)-6-oxo-6,8-dihydro-2H,7H-spiro[furo[2,3-e]isoindole-3,4′-piperidin]-7-yl) piperidine-2,6-dione] | > 1 | < 20 | 0.001 to 0.01 | 60 to 80 | 6.30 to 7.00 |  | 
7 | [2H]C([2H])(c1cccc(-c2cnn(C)c2)c1)N1CCC2(CC1)COc1c2ccc2c1CN([C@H]1CCC(=O)NC1=O)C2=O [Compound B11, (S)-3-(1′-((3-(1-methyl-1H-pyrazol-4-yl)phenyl)methyl-d2)-6-oxo-6,8-dihydro-2H,7H-spiro[furo[2,3-e]isoindole-3,4′-piperidin]-7-yl)piperidine-2,6-dione] | > 1 | < 20 | 0.001 to 0.01 | > 80 | > 7.00 |  | 
8 | [2H]C([2H])([2H])n1cc(-c2cccc(CN3CCC4(CC3)COc3c4ccc4c3CN([C@H]3CCC(=O)NC3=O)C4=O)c2)cn1 [Compound B12, (S)-3-(1′-(3-(1-(methyl-d3)-1H-pyrazol-4-yl)benzyl)-6-oxo-6,8-dihydro-2H,7H-spiro[furo[2,3-e]isoindole-3,4′-piperidin]-7-yl)piperidine-2,6-dione] | > 1 | < 20 | 0.001 to 0.01 | > 80 | 6.30 to 7.00 |  | 
